± gives the expanded uncertainty stated by the source.
Columns and labels:
[1] = Molar enthalpy of transition or fusion; conditions: Crystal; DSC
[2] = Crystal; DTA

CCOC(=O)[C@H](CCc1ccccc1)N[C@@H](C)C(=O)O [((S)-1-ethoxy-1-oxo-4-phenylbutan-2-yl)-L-alanine]
Molar enthalpy of transition or fusion [1]: 13.9 ± 0.335 kcal/mol | Normal melting temperature [2]: 153.36 ± 1.1 °C

From the NIST ThermoML archive (doi:10.1021/acs.jced.8b00333)
